Measurements taken from patent US9198415B2, “Plant irrigation methods” (Syngenta Participations AG, priority 2010, dated 2015).
Marks after values point to notes of the source that are not given here.

What was measured:
Assay type in all cases: in vivo
Corn plants = assay: Corn in 55-gal lysimeter containers, sub-surface chemigation, deficit water conditions, yield and root architecture; settings: maximum labeled rate; for Yield (% difference from UTC): sub-surface chemigation at V3/V4, deficit water (50% plant-available water), 12 plants; for Relative number of fine roots (% difference from UTC): sub-surface chemigation at V3/V4, deficit water, measured within 2 weeks of harvest by digital imaging
Source text: In this experiment, standardized growth conditions were applied across all corn treatments including: soil-water availability, soil texture and composition, soil chemical and physical properties, meteorological and environmental parameters, and plant nutrition in a greenhouse. No indication of plant disease or pest damage was observed over the course of the study and no pest management program was necessary. A homogeneous sand-organic matter soil mixture (0.18% organic matter) was used as the growth medium in 55-gal containers. These containers were used as a weighing lysimeter, where daily changes in system weight were used to calculate plant transpiration. Four corn plants were grown in each 55-gal container. Three 55-gal containers (12 plants total) made up each treatment. All irrigation and chemical treatments were applied via sub-surface irrigation. Chemical treatments consisted of: azoxystrobin (Quadris), paclobutrazol (Trimmit), trinexapac-ethyl (Moddus), and propiconazole (Tilt) at maximum labeled rates.
Corn plants were grown from seed and transplanted in the 55-gal drums approximately 14 days after planting. Uniform adequate irrigation was applied up to growth stage V3/V4 to ensure plant establishment. Chemical treatment applications were applied at growth stage V3/V4 via sub-surface chemigation. At stage V3/V4, irrigation was decreased to replicate deficit water conditions across all treatments for the remainder of the study period. Irrigation was managed daily to maintain 50% plant-available water. Visual signs of abiotic plant stress were observed approximately 30 days after chemical application. All corn plants were grown to yield and cobs were harvested when kernels were uniformly dry (15% moisture content). Root architecture, specifically relative number of fine roots, was measured at within 2 weeks of harvest using a digital imaging technique. Fine roots are related to water uptake productivity, which is directly tied to the ability of the plant to access soil-water under stress.
Effects of the chemical treatments via sub-surface irrigation on yield and root architecture were specifically documented. The effects are herein reported as the percentage increase compared to the untreated check (12 plants in three containers). […] Azoxystrobin, paclobutrazol, and trinexapac-ethyl were statistically different from the control (P values: <0.001 at the 95th percentile confidence interval).

Soybean plants [1] = assay: Soybean plants in pouches, drench application, severe drought stress, qualitative ranking of physiological state; settings: for Plant physiological state: Desiccated (number of plants in %) / Plant physiological state: Slightly withered (number of plants in %) / Plant physiological state: Strongly withered (number of plants in %) / Plant physiological state: Turgescent (number of plants in %): evaluation 14 days after application
Method: Soybean plants were grown in pouches (in filter paper bags), and 100 plants each were treated with BION at 3 rates (60, 20, 2 ppm), added to the drench water. Sowing and drench application of BION occurred simultaneously. After 8 days of optimal growth, the pouches went dry and plants were grown for several days under severe drought stress conditions until evaluation (14 days after application). A qualitative assessment was carried out, ranking the plants behaviour into four categories corresponding to four different physiological states (turgescent, slightly withered, strongly withered and desiccated) (Table 1)

Soybean plants [2] = assay: Soybean plants in pouches, drench application, drought stress and rewatering, shoot dry weight; settings: for Total Shoot Weight: 6 days drought, shoot dry weight 2 days after rewatering, 40 plants, untreated check 4.3 g
Method: Soybean plants were grown in pouches (in filter paper bags) and either BION or Thiamethoxam was applied to the water at different rates (see FIG. 2). Sowing and drench application of the compounds occurred simultaneously. After 8 days of optimal growth, the pouches went dry and plants were grown under drought stress conditions for 6 days. At the end of the drought period, plants were rewatered and shoot dry weight was determined 2 days later (Table 2). In total, 40 plants per treatment and 40 untreated check plants were assessed.

[3] = 2 ppm in drench water, severe drought
[4] = 20 ppm in drench water, severe drought
[5] = 60 ppm in drench water, severe drought

Structure (SMILES): CCCC1COC(Cn2cncn2)(c2ccc(Cl)cc2Cl)O1 (stereo not drawn) [Propiconazole]
- Yield (% difference from UTC) (Corn plants): 3.3%
- Relative number of fine roots (% difference from UTC) (Corn plants): 39.4† %

Structure (SMILES): CO/C=C(/C(=O)OC)c1ccccc1Oc1cc(Oc2ccccc2C#N)ncn1 [Azoxystrobin]
- Yield (% difference from UTC) (Corn plants): 12.5† %
- Relative number of fine roots (% difference from UTC) (Corn plants): 37.3† %

Structure (SMILES): CSC(=O)c1cccc2nnsc12 [ASM, S-methyl benzo[1,2,3]thiadiazole-7-carbothioate]
- Plant physiological state: Desiccated (number of plants in %) (Soybean plants [1]; [3]): 0.0%
- Plant physiological state: Slightly withered (number of plants in %) (Soybean plants [1]; [3]): 70.0%
- Plant physiological state: Strongly withered (number of plants in %) (Soybean plants [1]; [3]): 5.0%
- Plant physiological state: Turgescent (number of plants in %) (Soybean plants [1]; [3]): 25.0%
- Plant physiological state: Desiccated (number of plants in %) (Soybean plants [1]; [4]): 5.3%
- Plant physiological state: Slightly withered (number of plants in %) (Soybean plants [1]; [4]): 7.9%
- Plant physiological state: Strongly withered (number of plants in %) (Soybean plants [1]; [4]): 2.6%
- Plant physiological state: Turgescent (number of plants in %) (Soybean plants [1]; [4]): 84.2%
- Plant physiological state: Desiccated (number of plants in %) (Soybean plants [1]; [5]): 0.0%
- Plant physiological state: Slightly withered (number of plants in %) (Soybean plants [1]; [5]): 15.2%
- Plant physiological state: Strongly withered (number of plants in %) (Soybean plants [1]; [5]): 0.0%
- Plant physiological state: Turgescent (number of plants in %) (Soybean plants [1]; 60 ppm in drench water, severe drought, 100 plants): 84.8%
- Treated plants still fully turgescent at the end of the drought period (Soybean plants [1]; dose not stated, severe drought): more than 80%
- Behaviour of treated plants after severe drought compared to untreated check (Soybean plants [1]; qualitative): behaved much better after severe drought
- Total Shoot Weight (Soybean plants [2]; 5 ppm in water): 4.1 g
- Total Shoot Weight (Soybean plants [2]; 15 ppm in water): 5.6 g
- Health of treated plants after drought compared to untreated check (Soybean plants [2]; qualitative, FIG. 1): behaved extremely healthy

Structure (SMILES): CN1COCN(Cc2cnc(Cl)s2)/C1=N\[N+](=O)[O-] [TMX]
- Total Shoot Weight (Soybean plants [2]; 3 ppm in water): 4.6 g
- Total Shoot Weight (Soybean plants [2]; 12 ppm in water): 5.8 g

Structure (SMILES): CCOC(=O)C1CC(=O)C(=C(O)C2CC2)C(=O)C1 (stereo not drawn) [Trinexapac-ethyl]
- Yield (% difference from UTC) (Corn plants): 15.6† %
- Relative number of fine roots (% difference from UTC) (Corn plants): 34.3† %

Structure (SMILES): CC(C)(C)[C@@H](O)[C@@H](Cc1ccc(Cl)cc1)n1cncn1 (racemic) [Paclobutrazol, (2RS,3RS)-1-(4-chlorophenyl)-4,4-dimethyl-2-(1H-1,2,4-triazol-1-yl)pentan-3-01]
- Yield (% difference from UTC) (Corn plants): 16.6† %
- Relative number of fine roots (% difference from UTC) (Corn plants): 70.0† %
